Laboratory results published in patent US20070203079A1, “Methods of using small molecule compounds for neuroprotection” (priority 2005, published 2007).
Where a name gives a salt, the structure may show the parent alone.

What was measured:
Assay type in all cases: in vivo, C. elegans
[1] = tested on: worms containing Punc-54::Q82::GFP+Punc-54::torsinA+Punc54::torsinA (ΔE); experiment: Screen for reduction of polyglutamine protein aggregates in worms with wt and mutant torsinA; settings: differentiated by Q82::GFP lines without torsinA, with wt torsinA or with mutant torsinA
Protocol: C elegans nematodes were grown at 20° C. on NGM plates as described by Brenner (Brenner, Genetics, 1974, 77: 71-94). Several transgenic C. elegans lines were used for primary screens of the Prestwick small molecule library. A transgenic worm line expressing Punc-54::Q82-GFP; with both wild type (“wt”) (Punc=54: :torsinA) or mutant (Punc-54::torsinA(ΔE)). Torsin-A expresses a phenotype that results in visible protein aggregation under fluorescent microscope. Transgenic worms were plated on drug plates and progeny were studied for a return to soluble protein.
Drugs were administered to C. elegans according to a standard procedure (Rand and Johnson, Methods Cell Biol, 1995, 48: 187-204), by mixing the solubilized drug with the agar medium on which the worms are grown. This mode of administration allows the continuous exposure of worms to the drug.
Each drug was first dissolved in an appropriate solvent, followed by adding the drug solution into pre-autoclaved media, with the volume of drug solution already taken into account. […] Each plate was seeded with 100 μl concentrated E. coli OP50 bacteria.
The screening assays used to identify the compounds use protein aggregation readouts to determine the specificities of molecular action. […]
The methods for the aggregate analysis assay are described in Caldwell et al. (Hum Mol Genetics, 2003, 12(3): 307-319). […] MetaMorph Software (Universal Imaging Inc.) was used for pseudocoloration of images, image overlay, and aggregate size quantitation. For each worm line analyzed, average aggregate size was determined by capturing images of all aggregates in the posterior region of 30 L3-staged animals (for Q82::GFP aggregates) or all aggregates in 30 adult animals/day (for Q19::GFP analyses) at 1000× magnification. […]
To see the effect of the candidate compounds on suppressing protein misfolding and aggregation, five gravid adult worms were placed onto each drug plate and grown at 20° C. for approximately 3 days. Thirty Fl worms at L3 stage and young adult stage were counted for aggregate number.

[2] = tested on: protein misfolding and aggregation in transgenic worms; experiment: Preventative assay of protein aggregation (drug from hatching to L2 stage); settings: exposure from hatching to L2 stage; scored at L3 and young adult
Protocol: (§1) To see the preventative effects of the candidate drug compounds on protein misfolding and aggregation, five gravid adult worms were placed onto each drug plate and grown at 20° C. for approximately 3 days. 35-40 Fl worms at L2 stage were picked and transferred to a control plate with the same concentration of control solvent compared to the drug plate. Thirty worms at L3 stage were counted for aggregate number 8 hours later. Thirty young adults were analyzed 32 hours later.
(§2) To calculate the scaled effectiveness of special regimen of drugs on worms based on standardized decrease in protein aggregates. The following formula was used: (A−B)/(A−C)×100%, where
(§3) A=number of aggregates for worms growing on solvent control plates
(§4) B=number of aggregates for worms grown on the specific drug plate for the entire life of the worms
C=number of aggregates for worms that received pre-L2 exposure and were then removed to solvent control plates
(§5) If the regimen has no effect, the value would equal 0%. Conversely, if the regimen was as effective as raising the worms on the drug for their entire life, the value would equal 100%.

[3] = tested on: protein misfolding and aggregation in transgenic worms; experiment: Corrective assay of protein aggregation (drug from L2 stage onward); settings: drug exposure from L2 stage onward; scored at L3 and young adult
Protocol: as §1, with “corrective effect” for “preventative effects”, “a solvent control” for “each drug”, “a” for “a control plate with the same concentration of control solvent compared to the”
as §2, §3, §4
C=number of aggregates for worms that received exposure from L2 stage (until adulthood)
as §5

[4] = tested on: Pdat-1::GFP+Pdat-1::torsinA (ΔE) worms (mutant torsinA); experiment: 6-OHDA dopaminergic neurodegeneration in worms with mutant torsinA
Protocol: C. elegans nematodes were grown at 25° C. on NGM plates as described by Brenner (Brenner, Genetics, 1974, 77: 71-94). Two transgenic C. elegans lines were used for primary screens of the Prestwick small molecule library. A transgenic worm line expressing Pdat-1::GFP; with both wild type (Pdat-1::torsinA) or mutant (Pdat-1:::torsinA(ΔE)). Torsin-A expresses a phenotype that results in visible neurodegeneration after treatment with 6-OHDA. Transgenic worms were plated on drug plates and progeny were studied for morphological changes in the 8 dopaminergic neurons present in C. elegans.
Drugs were administered to C. elegans according to a standard procedure (Rand and Johnson, Methods Cell Biol, 1995, 48: 187-204) by mixing the solubilized drug with the agar medium on which the worms are grown. […]
Age-synchronized worms were obtained by treating gravid adults with 2% sodium hypochlorite and 0.5M NaOH to isolate embryos (Lewis Fleming, 1995). […] The worms were then washed and spread onto NGM plates seeded with bacteria (OP50) and scored at time points ranging from 2 to 72 h after 6-OHDA exposure.
Immediately after 6-OHDA treatment, worms containing the transgenes were selected under a fluorescence dissecting microscope, based on the presence of GFP, and transferred to a fresh NGM plate seeded with OP50. […] For ease of analysis, only the four CEP DA neurons in the head of the worm were scored. […]

In the case of `C=N[C@@H](C(=O)N[C@@H]1C(=O)N2[C@@H]1SC(C)(C)[C@@H]2C(=O)O)c1ccccc1` [Compound 235, Metampicillin sodium salt], the “Specificity in worm assay” value [1] is reported as “wt torsinA”, the “preventative effect on protein aggregation” value [2] is reported as “seem to be beneficial” and the “corrective effect on protein aggregation” value [3] is reported as “seem to be beneficial”. The “neuroprotection against 6-OHDA insult” value [4] was “not protected”.
